Measured values reported in patent US11471434B2, “Treatment for migraine” (INTRABIO LTD., priority 2017, dated 2022).

Tests used:
[1] = tested on: NPC Chinese Hamster Ovary (CHO) cells; assay: Relative lysosomal volume via LysoTracker in NPC CHO cells; type: cell-based; settings: 1 mM, 72 hours, p <0.01 versus untreated NPC1-null, FIG. 1
Description: NPC Chinese Hamster Ovary (CHO) cells were treated in vitro for 72 hours with 1 mM of acetyl-DL-leucine, acetyl-L-leucine, acetyl-D-leucine, DL-leucine, L-leucine, and D-leucine, respectively. Relative lysosomal volume was quantified via LysoTracker.
Data presented in FIG. 1 show the results for each treatment, with lysosomal volume expressed as fold change relative to untreated wild-type […]. The asterisks (**) indicate a p-values of <0.01 versus untreated NPC1-null.

[2] = tested on: Niemann-Pick Type C (NPC); settings: 12 patients with NPC (Bremova 2015); cited from earlier work
[3] = tested on: cerebellar symptoms; settings: cited from earlier work
[4] = tested on: cerebellar ataxia; settings: patients with cerebellar ataxia (Schniepp 2015); cited from earlier work
[5] = tested on: ataxia of different etiologies; settings: patients with ataxia, responders (Becker-Bense 2015); cited from earlier work
[6] = tested on: vertigo; settings: cited from earlier work
[7] = tested on: Migraine and Vestibular Migraine; assay: Case study Example 4: Tanganil for migraine and vestibular migraine; type: in vivo, human; settings: before treatment with Tanganil
Description: Patient Details: • Sex: […] • Six tablets of Tanganil® per day: two in the morning, two at noon and two in the evening for one week; thereafter, ten tablets of Tanganil® per day: four in the morning, three at noon and three in the evening. Tanganil® tablets as described in Example 1.

[8] = tested on: Migraine with Aura; assay: Case study Example 3: Tanganil for migraine with aura; type: in vivo, human; settings: 600 mg taken once a week; before treatment with Tanganil
[9] = tested on: acute unilateral labyrinthectomy; settings: rat, by activation of the vestibulo-cerebellum and deactivation of the posterolateral thalamus (Gunther 2015); cited from earlier work

Row | Structure (SMILES) | lysosomal volume (LysoTracker), fold change relative to untreated wild-type [1] | improvement of attacks of migraine headache with pain medication [7] | also measured
1 | CC(C)CC(N)C(=O)O (racemic) [DL-leucine] | significantly reduced | – | –
2 | CC(=O)NC(CC(C)C)C(=O)O (racemic) [acetyl-DL-leucine] | significantly reduced | – | ataxia [2]: significant improvement in ataxia; benefit in cerebellar patients ([3]; another case series (Pelz 2015)): did not find benefit; cerebellar symptoms ([3]; case series (Strupp 2013)): improvement of cerebellar symptoms; gait variability [4]: improves gait variability; brain metabolism (PET) [5]: increased metabolism in the midbrain and lower brainstem; cases with improvement in vertigo symptomology ([6]; clinical results reported by various authors, including disappearance of vertigo attacks): more than 95 % of cases; safety profile ([6]; used in France to treat acute vertigo since 1957): excellent safety profile
3 | CC(=O)Oc1ccccc1C(=O)O [Aspirin] | – | no improvement | –
4 | CC(C)C[C@@H](N)C(=O)O [D-leucine] | significantly reduced | – | –
5 | CC(C)Cc1ccc(C(C)C(=O)O)cc1 (stereo not drawn) [Ibuprofen] | – | no improvement | response of headache attacks [8]: responding
6 | CC(C)C[C@H](N)C(=O)O [L-leucine] | significantly reduced | – | –
7 | Cc1c(N(C)CS(=O)(=O)[O-])c(=O)n(-c2ccccc2)n1C.[Na+] [Novalgin] | – | improvement | –
8 | CC(=O)N[C@H](CC(C)C)C(=O)O [acetyl-D-leucine] | significantly reduced | – | –
9 | CC(=O)N[C@@H](CC(C)C)C(=O)O [acetyl-L-leucine] | significantly reduced | – | effect on postural compensation [9]: significant effect
